# Measured values from US20250224399A1, “METHOD FOR DETECTING HOMOCYSTEINE IN PLASMA AND METHOD FOR DIAGNOSING GLIOBLASTOMA BY USING NOVEL FLUORESCENT PROBE” (UNIVERSITY-INDUSTRY COOPERATION GROUP OF KYUNG HEE …, priority 2022, published 2025).
# Tests used:
# [1] = pH-dependent homocysteine sensing ability (fluorescence at 550 nm); conditions: 10 μM probe, 10 μM homocysteine, stirred 10 minutes, excitation 460 nm, emission 550 nm
# Method: The present inventors identified the homocysteine sensing ability of Compound 1 (NPO-pyr) according to acidity (pH).
# Specifically, in order to observe the sensitivity of acidity (pH) to homocysteine based on the fluorescence turning-on of Compound 1, the sensitivity was identified under various acidity conditions (pH 3 to 9) while fixing the concentrations of Compound 1 (10 μM) and homocysteine (10 μM). In other words, 10 µM of homocysteine was treated under the conditions of pH 3, 5, 7, 7.4, and 9, respectively, and 10 μM of Compound 1 was stirred for 10 minutes, and then the fluorescence intensity was measured. In this connection, an excitation wavelength of 460 nm was used, and a fluorescence emission wavelength of 550 nm was measured. The fluorescence intensity is shown in the bar graph in FIG. 4.
# [2] = Homocysteine reaction time and selectivity among amino thiols (fluorescence over 0 to 30 minutes); conditions: pH 7.4 PBS buffer
# Method: In order to identify whether Compound 1 (NPO-pyr) would react with various types of aminothiols including homocysteine under neutral conditions (pH 7.4), Compound 1 and aminothiol were added to an aqueous solution of neutral conditions (pH 7.4, PBS buffer) and the fluorescence emission graph was measured.
# Specifically, Compound 1 (10 μM) was reacted with homocysteine (DL-homocysteine, 10 μM), cysteine (10 μM), glutathione (L-glutathione, 10 μM), and hydrogen sulfide (10 μM) in an aqueous solution (pH 7.4, PBS buffer), and the fluorescence value was measured (excitation wavelength: 460 nm). Amino thiols including homocysteine were purchased from Sigma, TCI, and a fluorophotometer (SHIMADZU CORP. RF-6000, Japan) was used for fluorescence spectra analysis. In this connection, the cell that puts the compound into each device was a standard quartz cell with a thickness of 1 cm (internal volume=[…]).
# [3] = Homocysteine sensing ability in mouse plasma (limit of detection); conditions: probe 10 μM, 10 minutes at 37° C., excitation 460 nm
# Method: (§1) In order to identify the detection ability of Compound 1 (NPO-pyr) for homocysteine present in mouse plasma and feces, plasma (20 μL) isolated from blood and an extract (9.5 mg) extracted from mouse feces were dissolved in an aqueous solution (DI. H2O) (5 mL), treated with homocysteine at various concentrations (1 to 160 ng/μL), and then treated with Compound 1 (10 μM). After stirring for 10 minutes in a stirrer at 37° C. for reaction, the fluorescence spectrum was measured (excitation wavelength: 460 nm). Compound 1 was dissolved in DMSO solution at […] and used, and the amount of DMSO was ensured to be the same in each container (less than 1%) under the final solvent conditions used.
# [4] = Fluorescence intensity in plasma of glioblastoma mice versus normal mice; parameters: species or system mouse; conditions: plasma 7 and 14 days after the induction of glioblastoma, excitation 460 nm, emission 550 nm
# Method: First, in order to prepare the experimental group, a glioblastoma mouse model was created by administering a solution containing 5.0×10^5 cells in 5 μL of cell culture media without fetal bovine serum (FBS) using LUC-U87MG cells (glioblastoma cells) to the mouse brain (thalamus).
# In order to identify the reaction between Compound 1 and mouse plasma, a fluorescence measuring device (Spectro-fluorophotometer: SHIMADZU CORP. RF-6000, Japan) was used. The glass cuvette used for fluorescence measurements was a standard quartz cell with a thickness of 1 cm on all sides (internal volume=0.1 cm, Hellma Analytics, Jena, Germany).
# In addition, in order to identify the reaction between Compound 1 and mouse plasma, blood was collected from the control group and the experimental group, the plasma was isolated, reacted with Compound 1, and then the fluorescence intensity was measured at an emission wavelength of 550 nm using a fluorescence measuring device (Spectro-fluorophotometer; SHIMADZU CORP. RF-6000, Japan) (excitation wavelength: 460 nm). The glass cuvette used for fluorescence measurements was a standard quartz cell with a thickness of 1 cm on all sides (internal volume=0.1 cm, Hellma Analytics, Jena, Germany).
# [5] = Homocysteine sensing ability in mouse feces; conditions: extract of mouse feces, probe 10 μM, 10 minutes at 37° C., excitation 460 nm
# Method: as §1
# [6] = Selectivity toward biomolecules, thiols and metal ions (fluorescence at 550 nm); conditions: pH 7.4 PBS buffer, excitation 460 nm, emission 550 nm
# Method: An aqueous solution (pH 7.4, PBS buffer) was used, and metal ions were purchased from Aldrich, Oriental Chemicals, Samchun chemicals, and Duksan chemicals. Compound 1 was dissolved in dimethyl sulfoxide (DMSO) at 10 mM and used, and the amount of dimethyl sulfoxide was controlled to be the same in each solvent (less than 1%) under the final solvent conditions used. The concentration of Compound 1 was 10 μM, and the biomolecule was treated identically at 10 μM. The excitation wavelength was 460 nm, and the fluorescence value at a fluorescence wavelength of 550 nm was measured using a fluorescence spectrophotometer, and is shown in FIG. 3.
# The types of ions indicated on the horizontal axis in the graph of FIG. 3 are as follows: • (A) Probe 1 with DL-Homocysteine; • (B) Probe 1 with L-Cysteine; • (C) Probe 1 with L-Glutathion; • (D) Probe 1 with Hydrogen sulfide; • (E) Probe 1 with Bovine Serum Albumin; • (F) Probe 1 with Holmium (III) chloride; • (G) Probe 1 with Iron (II) chloride; • (H) Probe 1 with Iron (III) chloride; • (I) Probe 1 with Magnesium chloride; • (J) Probe 1 with Nikel (II) chloride; • (K) Probe 1 with Phosphorus pentachloride; • (L) Probe 1 with Gold trichloride; • (M) Probe 1 with Palladium (II) chloride; • (N) Probe 1 with potassium chloride; • (O) Probe 1 with Silver nitrate; • (P) Probe 1 with Sodium chloride; and • (Q) Probe 1 with Cobalt chloride.
# [7] = Stability in aqueous solution; type: physicochemical; conditions: pH 7.4, PBS buffer
smiles,measurement,setting,value
"O=[N+]([O-])c1ccc(Oc2ccncc2)c2nonc12 [Compound 1, 4-nitro-7-(pyridine-4-yloxy)benzo[c] [1,2,5] oxadiazole]","sensitivity of the reaction with homocysteine at other pHs (3, 5, 9)",[1],relatively weak
same,sensitivity of the reaction with homocysteine at pH 7 and 7.4,[1],most sensitive
same,time to increase in fluorescence after the addition of homocysteine (reaction time),"[2]; 10 μM probe, 10 μM homocysteine, excitation 460 nm",≤ 5 min
same,fluorescence emission with other amino thiols except homocysteine,"[2]; cysteine, glutathione, hydrogen sulfide, each 10 μM",no fluorescence emission was observed
same,LOD value for homocysteine,[3],0.176 ppm
same,LOD value for homocysteine,[3]; printed conversion of the ppm value,1.3 µM
same,fluorescence intensity in plasma of the experimental group (glioblastoma mice) compared to the control group (normal mice),[4],stronger fluorescence intensity
same,ability to sense homocysteine in mouse feces,[5],potential to sense homocysteine
same,fluorescence intensity with homocysteine (A),"[6]; 10 μM probe, 10 μM DL-homocysteine",strong fluorescence intensity value
same,"fluorescence turn-on under amino thiol, metal ion and biomolecule conditions other than homocysteine","[6]; 10 μM probe, 10 μM analyte",little fluorescence turn-on phenomenon
same,"fluorescence intensity, probe alone (Only NPO-pyr)",[6]; 10 μM,almost no fluorescence intensity value
same,stability in an aqueous solution,[7],showed stability
